Laboratory results: patent publication US9101136B2, “Synergistic herbicide/fungicide composition containing certain pyridine carboxylic acids and certain fungicides” (Dow AgroSciences LLC, priority 2010, dated 2015)
Like-named read-outs stand apart in the source and are kept apart here.

Assays:
Type in all cases: in vivo
[1] = system: lamb's-quarter (Chenopodium album L; CHEAL); experiment: Postemergence herbicidal activity of mixtures on lamb's-quarter; conditions: for CHEAL Ob (observed control): alone
Description: (§1) Seeds of the desired test plant species were planted in Sun Gro MetroMix 306 planting mixture, which typically has a pH of 6.0 to 6.8 and an organic matter content of about 30 percent, in plastic pots with a surface area of 103.2 square centimeters (cm^2). When required to ensure good germination and healthy plants, a fungicide treatment and/or other chemical or physical treatment was applied. The plants were grown for 7-36 days (d) in a greenhouse with an approximate 14-hour (h) photoperiod which was maintained at about 18° C. during the day and 17° C. during the night. Nutrients and water were added on a regular basis and supplemental lighting was provided with overhead metal halide 1000-Watt lamps as necessary. The plants were employed for testing when they reached the second or third true leaf stage.
Treatments consisted of a cereal fungicide compound (as listed in Tables 1 through 34) and the cereal herbicide, 4-amino-3-chloro-6-(4-chloro-2-fluoro-3-methoxyphenyl)pyridine-2-carboxylic acid, alone and in combination. Weighed amounts of acid, esters (methyl) or salts (triethylammonium, TEA) of 4-amino-3-chloro-6-(4-chloro-2-fluoro-3-methoxyphenyl)pyridine-2-carboxylic acid (Compound I) were placed in 25 milliliter (mL) glass vials and dissolved in a volume of 97:3 volume-to-volume (v/v) acetone/dimethyl sulfoxide (DMSO) to obtain 4.5 milligrams active ingredient per milliliter (mg ai/mL) concentrated solutions. […] The concentrated solutions of Compound I were diluted to 1.5 mg ai/mL with the addition of 2 volumes of an aqueous mixture containing acetone, water, isopropyl alcohol, DMSO, Agri-dex crop oil concentrate, and Triton® X-77 surfactant in a 64.7:26.0:6.7:2.0:0.7:0.01 v/v ratio. A dilution solution was prepared by mixing 1 volume of 97:3 v/v acetone/DMSO and 2 volumes of an aqueous mixture containing acetone, water, isopropyl alcohol, DMSO, Agri-dex crop oil concentrate, and Triton® X-77 surfactant in a 64.7:26.0:6.7:2.0:0.7:0.01 v/v ratio. Compound requirements are based upon a 12 mL application volume at a rate of 187 liters per hectare (L/ha). The concentrated solutions of the cereal fungicides were prepared following the same procedure. Weighed amounts of fungicide were placed in 25 mL glass vials and dissolved in a volume of 97:3 v/v acetone/DMSO to obtain concentrated fungicide solutions. […]
(§2) The treated plants and control plants were placed in a greenhouse as described above and watered by sub-irrigation to prevent wash-off of the test compounds. After 20-22 d, the condition of the test plants as compared with that of the control plants was determined visually and scored on a scale of 0 to 100 percent where 0 corresponds to no injury and 100 corresponds to complete kill. […]

[2] = system: redroot pigweed (Amaranthus retroflexus L; AMARE); experiment: Postemergence herbicidal activity of mixtures on redroot pigweed; conditions: for AMARE Ob (observed control): alone
Description: as §1
(§3) Treatments consisted of a cereal fungicide compound (as listed in Tables 1 through 34) and the cereal herbicide, 4-amino-3-chloro-6-(4-chloro-2-fluoro-3-methoxyphenyl)pyridine-2-carboxylic acid, alone and in combination. Weighed amounts of acid, esters (methyl) or salts (triethylammonium, TEA) of 4-amino-3-chloro-6-(4-chloro-2-fluoro-3-methoxyphenyl)pyridine-2-carboxylic acid (Compound I) were placed in 25 milliliter (mL) glass vials and dissolved in a volume of 97:3 volume-to-volume (v/v) acetone/dimethyl sulfoxide (DMSO) to obtain 4.5 milligrams active ingredient per milliliter (mg ai/mL) concentrated solutions. […] The concentrated solutions of Compound I were diluted to 1.5 mg ai/mL with the addition of 2 volumes of an aqueous mixture containing acetone, water, isopropyl alcohol, DMSO, Agri-dex crop oil concentrate, and Triton® X-77 surfactant in a 64.7:26.0:6.7:2.0:0.7:0.01 v/v ratio. A dilution solution was prepared by mixing 1 volume of 97:3 v/v acetone/DMSO and 2 volumes of an aqueous mixture containing acetone, water, isopropyl alcohol, DMSO, Agri-dex crop oil concentrate, and Triton® X-77 surfactant in a 64.7:26.0:6.7:2.0:0.7:0.01 v/v ratio. Compound requirements are based upon a 12 mL application volume at a rate of 187 liters per hectare (L/ha). The concentrated solutions of the cereal fungicides were prepared following the same procedure. Weighed amounts of fungicide were placed in 25 mL glass vials and dissolved in a volume of 97:3 v/v acetone/DMSO to obtain concentrated fungicide solutions. The concentrated solutions of the safener were prepared following the same procedure. Weighed amounts of safener were placed in 25 mL glass vials and dissolved in a volume of 97:3 v/v acetone/DMSO to obtain concentrated safener solutions.
(§4) Spray solutions of the cereal herbicide and the fungicidal compound mixtures were prepared by adding the concentrated solutions to the appropriate amount of dilution solution to form 12 mL spray solution with active ingredients in combinations. Spray solutions of the cereal herbicide, herbicide safener and the fungicidal compound mixtures were prepared by adding the concentrated solutions to the appropriate amount of dilution solution to form 12 mL spray solution with active ingredients in combinations. […]
as §2

[3] = system: wild pansy (Viola tricolor L; VIOTR); experiment: Postemergence herbicidal activity of mixtures on wild pansy
Description: as §1, §3
Spray solutions of the cereal herbicide and the fungicidal compound mixtures were prepared by adding the concentrated solutions to the appropriate amount of dilution solution to form 12 mL spray solution with active ingredients in combinations. Spray solutions of the cereal herbicide, herbicide safener and the fungicidal compound mixtures were prepared by adding the concentrated solutions to the appropriate amount of dilution solution to form 12 mL spray solution with active ingredients in combinations.
Formulated compounds were applied to the plant material with an overhead Mandel track sprayer equipped with 8002E nozzles calibrated to deliver 187 L/ha over an application area of 0.503 square meters (m^2) at a spray height of 18 inches […] above average plant canopy. Control plants were sprayed in the same manner with the solvent blank.
as §2

[4] = system: Canada thistle (Cirsium arvense L; CIRAR); experiment: Postemergence herbicidal activity of mixtures on Canada thistle; conditions: for CIRAR Ob (observed control): alone
Description: as §1, §3, §4, §2

[5] = system: chickweed (Stellaria media L; STEME); experiment: Postemergence herbicidal activity of mixtures on chickweed; conditions: for STEME Ob (observed control): alone
Description: as §1
Treatments consisted of a cereal fungicide compound (as listed in Tables 1 through 34) and the cereal herbicide, 4-amino-3-chloro-6-(4-chloro-2-fluoro-3-methoxyphenyl)pyridine-2-carboxylic acid, alone and in combination. Weighed amounts of acid, esters (methyl) or salts (triethylammonium, TEA) of 4-amino-3-chloro-6-(4-chloro-2-fluoro-3-methoxyphenyl)pyridine-2-carboxylic acid (Compound I) were placed in 25 milliliter (mL) glass vials and dissolved in a volume of 97:3 volume-to-volume (v/v) acetone/dimethyl sulfoxide (DMSO) to obtain 4.5 milligrams active ingredient per milliliter (mg ai/mL) concentrated solutions. […] The concentrated solutions of Compound I were diluted to 1.5 mg ai/mL with the addition of 2 volumes of an aqueous mixture containing acetone, water, isopropyl alcohol, DMSO, Agri-dex crop oil concentrate, and Triton® X-77 surfactant in a 64.7:26.0:6.7:2.0:0.7:0.01 v/v ratio. […]
as §2

CC(Cc1ccc(C(C)(C)C)cc1)CN1CCCCC1 (racemic) [Fenpropidin, (±)-1-[3-[4-(1,1-dimethylethyl)phenyl]-2-methylpropyl]piperidine]
0%: CHEAL Ob ([1]; fungicide 562.5 g/ha alone) | AMARE Ob ([2]; fungicide 562.5 g/ha alone) | pest or weed control at 562.5 g/ha ([3]; Viola tricolor, post-emergence, fungicide 562.5 g/ha alone, read-out: VIOTR Ob) | CIRAR Ob ([4]; fungicide 562.5 g/ha alone)

FC(F)C(F)(F)OCC(Cn1cncn1)c1ccc(Cl)cc1Cl (racemic) [Tetraconazole, (±)-1-[2-(2,4-dichlorophenyl)-3-(1,1,2,2-tetrafluoroethoxy)propyl]-1H-1,2,4-triazole]
0%: CHEAL Ob (observed control) ([1]; 125 g/ha) | AMARE Ob (observed control) ([2]; 125 g/ha) | pest or weed control at 125 g/ha ([3]; Viola tricolor, post-emergence, alone, 125 g/ha, read-out: VIOTR Ob (observed control)) | CIRAR Ob (observed control) ([4]; 125 g/ha) | STEME Ob (observed control) ([5]; 125 g/ha)

CC(C)NC(=O)N1CC(=O)N(c2cc(Cl)cc(Cl)c2)C1=O [Iprodione, 3-(3,5-dichlorophenyl)-N-(1-methylethyl)-2,4-dioxo-1-imidazolidine=carboxamide]
0%: AMARE Ob ([2]; fungicide 750 g/ha alone) | pest or weed control at 750 g/ha ([3]; Viola tricolor, post-emergence, fungicide 750 g/ha alone, read-out: VIOTR Ob) | CIRAR Ob ([4]; fungicide 750 g/ha alone)

CO/C=C(/C(=O)OC)c1ccccc1COc1cccc(C(F)(F)F)n1 [Picoxystrobin, methyl (E)-(α)-(methoxymethylene)-2-[[[6-(trifluoromethyl)-2-pyridinyl]oxy]methyl]benzeneacetate]
0%: CHEAL Ob ([1]; fungicide 250 g/ha alone) | AMARE Ob ([2]; fungicide 250 g/ha alone) | VIOTR Ob ([3]; fungicide 250 g/ha alone) | CIRAR Ob ([4]; fungicide 250 g/ha alone) | STEME Ob ([5]; fungicide 250 g/ha alone)

COC(=O)NC(=S)Nc1ccccc1NC(=S)NC(=O)OC [Thiophanate-methyl, dimethyl[1,2-phenylenebis(iminocarbonothioyl)]bis[carbamate]]
0%: CHEAL Ob (observed control) ([1]; 750 g/ha) | AMARE Ob (observed control) ([2]; 750 g/ha) | pest or weed control at 750 g/ha ([3]; Viola tricolor, post-emergence, alone, 750 g/ha, read-out: VIOTR Ob (observed control)) | CIRAR Ob (observed control) ([4]; 750 g/ha) | STEME Ob (observed control) ([5]; 750 g/ha)
